ChEMBL document CHEMBL5126678, “A New Naphthopyran Derivative Combines c-Myb Inhibition, Microtubule-Targeting Effects, and Antiangiogenic Properties” (ACS Med Chem Lett, 2022)
Activity calls are given as the source filed them. The calls are words filed in the database; no cut-off is given here.

Assays:
[1] = biological target: Transcriptional activator Myb (Homo sapiens, UniProt P10242); test: Inhibition of c-Myb (unknown origin) expressed in HEK293T cells measured after 16 hrs by steady-glo luciferase reporter gene assay; assay type: cell-based
Sequence of Transcriptional activator Myb (P10242 whole entry): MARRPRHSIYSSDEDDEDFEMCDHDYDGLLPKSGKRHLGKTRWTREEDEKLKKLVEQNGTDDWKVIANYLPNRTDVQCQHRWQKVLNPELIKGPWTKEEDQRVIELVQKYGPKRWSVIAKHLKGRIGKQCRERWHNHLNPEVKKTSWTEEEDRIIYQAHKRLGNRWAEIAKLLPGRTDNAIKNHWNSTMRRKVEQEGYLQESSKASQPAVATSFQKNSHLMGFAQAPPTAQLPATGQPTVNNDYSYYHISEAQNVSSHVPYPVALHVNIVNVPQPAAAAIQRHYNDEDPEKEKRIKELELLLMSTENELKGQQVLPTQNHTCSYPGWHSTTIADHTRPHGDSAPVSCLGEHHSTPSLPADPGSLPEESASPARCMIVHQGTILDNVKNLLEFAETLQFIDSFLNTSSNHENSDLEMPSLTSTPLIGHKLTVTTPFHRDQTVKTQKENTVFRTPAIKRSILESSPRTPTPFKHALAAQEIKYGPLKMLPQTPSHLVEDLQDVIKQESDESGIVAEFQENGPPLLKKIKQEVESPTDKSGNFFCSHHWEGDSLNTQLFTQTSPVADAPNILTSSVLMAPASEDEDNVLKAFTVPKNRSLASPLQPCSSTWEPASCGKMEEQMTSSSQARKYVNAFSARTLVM

[2] = Effect on angiogenic activity in 24 hrs post-fertilized fil1/EGFP transgenic zebrafish embryo assessed as subintestinal vessel area at 100 nM measured after 48 hrs by fluorescence microscopy (reference value: 100%); assay type: toxicity, Danio rerio; conditions: 0.1 µM
[3] = system: HCT-116; test: Cytotoxicity against human HCT-116 cells assessed as reduction in cell viability measured after 72 hrs by MTT assay; assay type: functional, cell-based; conditions: HCT-116, 72 h
[4] = Cytotoxicity against human EA.hy 926 cells assessed as reduction in cell viability measured after 72 hrs by MTT assay; assay type: toxicity, cell-based
[5] = system: HCT-116; test: Cytotoxicity against p53-deficient human HCT-116 cells assessed as reduction in cell viability measured after 72 hrs by MTT assay; assay type: functional, cell-based; conditions: HCT-116, 72 h
[6] = system: 518A2; test: Cell cycle arrest in human […] cells assessed as increase in accumulation at sub-G1 phase at 25 nM measured after 6 to 24 hrs by propidium iodide staining based FACS analysis; assay type: functional; conditions: time 6-24 hrs
[7] = Cytotoxicity against human U-87 cells assessed as reduction in cell viability measured after 72 hrs by MTT assay; assay type: functional, cell-based, U-87MG ATCC; conditions: U-87 MG
[8] = biological target: Caspase-3/Caspase-7 (Homo sapiens) (UniProt P42574+P55210); test: Activation of caspase-3/7 activity in human 518A2 cells at 25 nM preincubated for 24 hrs followed by caspase-3/7 fluorogenic substrate addition and measured after 60 mins by fluorescence assay; assay type: cell-based; conditions: filed as activator, time 25.0 hrs
Sequence of Caspase-3/Caspase-7 (Homo sapiens) (P42574 whole entry, looked up): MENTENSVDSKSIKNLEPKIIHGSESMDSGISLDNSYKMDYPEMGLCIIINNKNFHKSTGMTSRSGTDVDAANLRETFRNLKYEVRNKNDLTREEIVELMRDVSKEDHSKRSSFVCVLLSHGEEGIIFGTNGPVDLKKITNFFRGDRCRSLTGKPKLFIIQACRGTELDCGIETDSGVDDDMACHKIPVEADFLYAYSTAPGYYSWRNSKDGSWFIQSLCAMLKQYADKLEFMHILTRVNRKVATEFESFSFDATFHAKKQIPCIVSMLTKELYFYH
Sequence of Caspase-3/Caspase-7 (Homo sapiens) (P55210 whole entry, looked up): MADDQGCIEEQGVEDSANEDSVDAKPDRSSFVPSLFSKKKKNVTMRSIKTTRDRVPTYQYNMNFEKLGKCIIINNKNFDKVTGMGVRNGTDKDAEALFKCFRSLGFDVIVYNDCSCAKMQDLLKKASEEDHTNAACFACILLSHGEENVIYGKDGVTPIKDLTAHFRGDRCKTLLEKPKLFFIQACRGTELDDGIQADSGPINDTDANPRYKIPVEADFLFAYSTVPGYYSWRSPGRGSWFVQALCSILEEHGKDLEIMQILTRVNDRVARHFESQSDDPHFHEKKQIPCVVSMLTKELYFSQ

[9] = system: MCF7; test: Cytotoxicity against human MCF7 cells assessed as reduction in cell viability measured after 72 hrs by MTT assay; assay type: functional, cell-based; conditions: MCF7, 72 h
[10] = organism: Sus scrofa; test: Inhibition of porcine brain tubulin polymerization at 5 uM measured at 10 mins interval for 100 mins by turbidimetric assay; assay type: tissue-based
[11] = system: KB-V1; test: Cytotoxicity against human multidrug-resistant KB-V1 cells assessed as reduction in cell viability measured after 72 hrs by MTT assay; assay type: functional, cell-based; conditions: KB-V1, 72 h
[12] = Cytotoxicity against HDFa cells assessed as reduction in cell viability at 0.0005 to 100 uM measured after 72 hrs by MTT assay; assay type: toxicity, cell-based; conditions: human, dose 0.0005-100 µM
[13] = system: 518A2; test: Cell cycle arrest in human […] cells assessed as increase in accumulation at G2/M phase at 25 nM measured after 6 to 24 hrs by propidium iodide staining based FACS analysis; assay type: functional; conditions: time 6-24 hrs
[14] = system: HeLa; test: Cytotoxicity against human HeLa cells assessed as reduction in cell viability measured after 72 hrs by MTT assay; assay type: functional, cell-based
[15] = system: 518A2; test: Cytotoxicity against human 518A2 cells assessed as reduction in cell viability measured after 72 hrs by MTT assay; assay type: functional, cell-based; conditions: 518A2, 72 h
[16] = system: KB-V1; test: Cytotoxicity against human multidrug-resistant KB-V1 cells assessed as reduction in cell viability measured after 72 hrs in presence of verapamil by MTT assay; assay type: functional, cell-based; conditions: KB-V1, 72 h
[17] = system: HT-29; test: Cytotoxicity against human HT-29 cells assessed as reduction in cell viability measured after 72 hrs by MTT assay; assay type: functional, cell-based; conditions: HT-29, 72 h
[18] = Stability of compound in human 518A2 cell lysate at 100 uM measured after 24 hrs by UV-absorption spectra analysis; assay type: ADME, subcellular; conditions: 518a2, 24 h
[19] = Drug uptake in cytoplasm of human 518A2 cells at 25 uM measured within 15 mins by confocal microscopy; assay type: ADME, subcellular; conditions: 518a2, 0.25 h
[20] = biological target: T1, Tubulin (Homo sapiens) (UniProt P68371+Q9H4B7+P0DPH7+P68366+Q13509+Q71U36+P04350+Q3ZCM7+P07437+P68363+Q9BQE3+Q6PEY2+Q13885+Q9BVA1+Q9BUF5); test: Induction of microtubule fragmentation in human 518A2 cells at 25 nM measured after 24 hrs by immunofluorescence assay; assay type: cell-based
[21] = Effect on angiogenic activity in human EA.hy 926 cells assessed as reduction in vessel like 2D structure at 25 nM measured after 5 hrs by light microscopy; assay type: toxicity, cell-based; conditions: ea.hy 926, 5 h, 0.025 µM
[22] = Hydrolytic stability of compound in DMSO-d6/D2O measured after 7 days by 1H-NMR analysis; assay type: physicochemical; conditions: 168 h; time 7 day
[23] = biological target: T1, Tubulin (Homo sapiens); test: Induction of microtubule fragmentation in human 518A2 cells assessed as appearance of area with transverse arcs at 25 nM measured after 24 hrs by immunofluorescence assay; assay type: cell-based
[24] = Stability of compound in human 518A2 cell lysate measured after 72 hrs by RP-HPLC analysis; assay type: ADME, subcellular; conditions: 518a2, 72 h
[25] = biological target: T1, Tubulin (Homo sapiens); test: Induction of microtubule fragmentation in human 518A2 cells assessed as appearance of area with dorsal stress fibre at 25 nM measured after 24 hrs by immunofluorescence assay; assay type: cell-based

N#CC1=C(N)Oc2c(ccc3ccccc23)C1c1cccc(S(F)(F)(F)(F)F)c1 (centres undefined)
IC50 [1]: 0.13 µM

CCOc1c(I)cc(C2C(C#N)=C(N)Oc3c2ccc2ccccc32)cc1OC (centres undefined)
IC50 [1]: 0.05 µM

COc1ccc(C2C(C#N)=C(N)Oc3c2ccc2ccccc32)cc1OC (centres undefined)
IC50 [1]: 0.04 µM

Cc1ccc(C2C(C#N)=C(N)Oc3c2ccc2ccccc32)cc1 (centres undefined)
IC50 [1]: 0.43 µM

CCOc1c(Br)cc(C2C(C#N)=C(N)Oc3c2ccc2ccccc32)cc1OC (centres undefined)
IC50 [1]: 0.0368 µM

CNC(=O)c1ccccc1Sc1ccc2c(/C=C/c3ccccn3)n[nH]c2c1 [AXITINIB]
Activity [2]: 19.6%

COc1cc(C2C(C#N)=C(N)Oc3c2ccc2ccccc32)cc(OC)c1OC(C)C (centres undefined)
IC50 [3]: 0.274 µM | IC50 at 72 h [4]: 0.0658 µM | IC50 [1]: 0.06 µM | IC50 [5]: 0.137 µM | Activity [6]: Active | IC50 [7]: 0.0531 µM | Activity [2]: 80.9% | Activity [8]: Active | IC50 [9]: 0.265 µM | inhibition [10]: Active | IC50 [11]: 0.089 µM | Activity [12]: Toxic | Activity [13]: Active | IC50 [14]: 0.072 µM | IC50 [15]: 0.266 µM | IC50 [16]: 0.105 µM | IC50 [17]: 4.31 µM

C#CCOc1c(OC)cc(C2C(C#N)=C(N)Oc3c2ccc2ccccc32)cc1OC (centres undefined)
IC50 [3]: 0.0752 µM | IC50 at 72 h [4]: 0.0171 µM | Stability [18]: Stable | IC50 [1]: 0.011 µM | Drug uptake [19]: Active | IC50 [5]: 0.0199 µM | Activity [6]: Active | IC50 [7]: 0.0052 µM | Activity [2]: 34.5% | Activity [8]: Active | Activity [20]: Active | IC50 [9]: 0.0026 µM | inhibition [10]: Active | IC50 [11]: 0.0606 µM | Activity [12]: Toxic | Activity [21]: Toxic | Activity [13]: Active | Stability [22]: Stable | IC50 [14]: 0.024 µM | IC50 [15]: 0.0206 µM | Activity [23]: Active | Stability [24]: Stable | Activity [25]: Active | IC50 [16]: 0.0106 µM | IC50 [17]: 0.0369 µM

COc1ccc(C2C(C#N)=C(N)Oc3c2ccc2ccccc32)cc1Br (centres undefined)
IC50 [1]: 0.42 µM

CCCCCOc1c(OC)cc(C2C(C#N)=C(N)Oc3c2ccc2ccccc32)cc1OC (centres undefined)
IC50 [1]: 0.4 µM

COc1cc(C2C(C#N)=C(N)Oc3c2ccc2ccccc32)ccc1OCc1ccccc1 (centres undefined)
IC50 [1]: 1 µM

CSc1ccc(C2C(C#N)=C(N)Oc3c2ccc2ccccc32)cc1 (centres undefined)
IC50 [1]: 0.21 µM

N#CC1=C(N)Oc2c(ccc3ccccc23)C1c1ccc(S(F)(F)(F)(F)F)cc1 (centres undefined)
IC50 [1]: 3.2 µM

N#CC1=C(N)Oc2c(ccc3ccccc23)C1c1cc(F)c(F)c(F)c1 (centres undefined)
IC50 [1]: 0.07 µM
